Results: PMC10419174, “WR1065 conjugated to thiol-PEG polymers as novel anticancer prodrugs: broad spectrum efficacy, synergism, and drug resistance reversal” (Frontiers in Oncology, 2023)
Read-outs that look alike come from different tables or passages of the source. Marks after values point to notes of the source that are not given here.

How the values were obtained:
[1] = test system: Malignant pleural mesothelioma PPMMill cells; test: cells; settings: 48 h
Description: (§1) The percentage of growth inhibition was calculated as follows: […]

Ovary SKOV3 cells [2] = test: cells
Description: as §1

Ovary TOV21G cells = test: cells
Description: as §1

A549 NSCLC cells = test: cells
Description: as §1

Pancreas PANC-1 cells = test: cells; settings: Homo sapiens, PANC-1, 48 h
Description: as §1

NCI-H1975 NSCLC cells = test: cells; settings: Homo sapiens, NCI-H1975, 48 h
Description: as §1

Prostate LNCaP cells = test: cells; settings: Homo sapiens, LNCaP, 48 h
Description: as §1

Prostate DU145 cells [3] = test: cells; settings: Homo sapiens, DU-145, 48 h
Description: as §1

human cancer cell lines = test: cells; settings: for cytolytic effects: exposure levels up to 500 µM, 48 h; for GI50: Homo sapiens
Description: as §1

Prostate PC3 cells [4] = test: cells
Description: as §1

[5] = test system: Mammary gland HCC38 cells; test: CyQUANT-NF proliferation assay, 48-h drug treatment; format: cell-based; settings: 48-h treatment, amifostine ND = not definable up to 500 µM
[6] = test system: Mammary gland MDA-MB-231 cells; test: as above; format: cell-based; settings: Homo sapiens, MDA-MB-231; 48-h treatment; amifostine ND = not definable up to 500 µM
Description: Since the BRG prodrugs are composed of WR1065 as one of the major constituents, assays were conducted to determine if factors reported to modulate the activity of amino acid and polyamine plasma membrane transport systems impacted the efficacy of 4SP65 or 1LP65 in selected cancer cell lines. HL60 cells were exposed to 4SP65 with up to 0.5 mM NaCl, MBA-MD-231 cells were tested in the presence and absence of medium supplemented with estradiol plus insulin (in the BulletKit™ for growth supplements for NHMECs), HCC38 cells were exposed to 4SP65 with and without 10 µM insulin added to the growth medium, and multiple cells lines were pretreated for 24 h with 1 mM DFMO prior to starting exposures to 4SP65.
as §1

[7] = test system: human Hec50co (p53-null) endometrial tumor xenografts; settings: single agent; cited from earlier work
[8] = test system: temperature-dependent p53 mutants; parameters: method as in PMID 11429700, PMID 11870884, PMID 22710932, PMID 17724467; settings: 11 temperature-dependent mutants analyzed; cited from earlier work
[9] = test system: Acute promyelocytic HL60 leukemia cells; settings: cited from earlier work
[10] = test system: Mammary gland MDA-MB-231 cells; settings: cited from earlier work; for GI50: ref NCI Database of Screening Results
Prostate PC3 cells [11] = settings: cited from earlier work
Prostate DU145 cells [12] = test system: Prostate DU145 cells; parameters: method as in NCI Database of Screening Results; settings: ref NCI Database of Screening Results; cited from earlier work
Lung NCI-H460 cells = settings: cited from earlier work; for GI50 / TGI: ref NCI Database of Screening Results
Lung A549 cells = settings: cited from earlier work; for GI50 / TGI: ref NCI Database of Screening Results
Ovary SKOV3 cells [13] = settings: cited from earlier work; for GI50 / TGI: ref NCI Database of Screening Results
[14] = test system: Malignant pleural mesothelioma HMESO1 cells; settings: drug alone, 48 h, 4SP65/cisplatin study
Description: as §1

NCI-H460 NSCLC cells = settings: drug alone, 48 h, 4SP65/cisplatin study
Description: To test anticancer effectiveness of individual drugs or drug combinations, the CyQUANT®-NF proliferation assay was used with a plate reader (i) to generate standard curves for cell numbers for each cell line, (ii) to measure the starting cell numbers at initiation of drug treatment, and (iii) to obtain fluorescence readings from cells in 96-well plates for comparisons to a standard curve for the relevant cancer cell line and quantifying cell viability after drug treatments. […] Trypan blue exclusion was used to estimate cell numbers in a few pilot experiments and thereafter was applied to confirm very low viable cell numbers and cell death.
A series of experiments was conducted to determine the relative efficacy of 4SP65, 1LP65, and amifostine as single agents in the same human cancer cell lines.
Five metrics were calculated and used to characterize the shape of the dose-response curve following exposure to a single test agent. Using cell numbers based on fluorescence measurements and standard curves, the percentage growth was calculated at each drug concentration level. The percentage of growth inhibition was calculated as follows:
where Tz = cell numbers or fluorescence counts at time xero, C = vehicle-exposed control cell numbers at the end of the assessment time period, and Ti = test agent-exposed cell numbers or fluorescence counts at each drug concentration. […] The LC50/99 was calculated using Equation 2 = -50 and Eq. 2 = -99, respectively. […] For NHMECs, the relationships between drug exposure levels and fluorescence units were used to define dose-response metrics. The selectivity index values for individual drugs were calculated using IC50 levels in NHMECs divided by the IC50 value for each cancer cell line. Statistical comparisons of differences in individual dose-response metrics between drug treatments and cell lines were conducted using Student’s t-test, with P-values <0.05 considered significant.
Relative cell growth inhibition values for differing levels of each drug alone and in combination were input into SynergyFinder to generate dose-response curves for each drug alone and to produce a dose-response matrix. The dose-response matrix data then were used in generating a two-dimension heatmap and three-dimension volcano plot to visualize the distribution of areas of differing degrees of synergism and to calculate average and maximum synergy scores in selected human cancer cell lines. The expected drug combination responses were calculated using both the Highest Single Agent (HSA) model and the Zero interaction potency (ZIP) model.

[15] = ref NCI Database of Screening Results
[16] = drug alone, 4SP65/cisplatin study
[17] = drug alone, 4SP65/cisplatin study, ND = not definable, highest concentration in parentheses
[18] = drug alone, 48 h, 4SP65/cisplatin study
[19] = drug alone, 48 h, 4SP65/cisplatin study, ND = not definable, highest concentration in parentheses
[20] = ND = not definable, highest concentration in parentheses

## NCCCNCCSP(=O)(O)O [Amifostine, amifostine, reference compound]
[1]; Homo sapiens
  GI50: 378 ± 122 µM
Ovary SKOV3 cells [2]; Homo sapiens, SK-OV-3, 48 h
  GI50: 81 ± 13 µM
  IC50: 294 ± 119 µM
Ovary TOV21G cells; Homo sapiens, TOV21G, 48 h
  GI50: 47 ± 10 µM
  IC50: 57 ± 9 µM
A549 NSCLC cells; Homo sapiens, A549, 48 h
  GI50: 241 ± 130 µM
  IC50: 261 ± 120 µM
Pancreas PANC-1 cells
  GI50: 113 ± 39 µM
NCI-H1975 NSCLC cells
  GI50: 130 ± 26 µM
Prostate LNCaP cells
  GI50: 150 ± 47 µM
  IC50: 378 ± 122 µM
Prostate DU145 cells [3]
  GI50: 126 ± 28 µM
  IC50: 319 ± 105 µM
Human cancer cell lines
  LC50: Not definable ^k
Human cancer cell lines; 14 cell lines
  cancer cell lines with limited cytostatic effects: 11/14
  cytolytic effects: no cytolytic effects
Human cancer cell lines; 14 cell lines, listed as amifostine
  cytolytic effects: not found in any cell line
Human cancer cell lines; 14 cell lines, highest concentration 500 µM
  LC99: Not definable ^k
Human cancer cell lines; read-out: GI50 average, GI50 values >100 µM in 7/14 cell lines
  GI50: 149 µM
Human cancer cell lines; read-out: GI50 range, GI50 values <100 µM in 4/14 cell lines: HCC38, PC3, SKOV3, TOV21G
  GI50: 47 to 81 µM
Human cancer cell lines; read-out: GI50 range, seven of 14 cell lines
  GI50: 113 to 378 µM
Human cancer cell lines; read-out: average GI50, four cell lines where amifostine GI50 <100 µM
  GI50: 64.8 µM
Human cancer cell lines; only two cell lines, HCC38 and PC3
  TGI average: 278 ± 24 ^j µM
Prostate PC3 cells [4]; 48-h treatment, amifostine ND = not definable up to 500 µM
  TGI: 301 ± 115 µM
Prostate PC3 cells [4]; Homo sapiens, PC-3, 48 h
  GI50: 53 ± 10 µM
  IC50: 103 ± 15 µM
[5]
  TGI: 254 ± 123 µM
[5]; Homo sapiens, HCC38
  GI50: 78.1 ± 35.7 µM
  IC50: 276 ± 92 µM
[6]
  GI50: 241 ± 130 µM
[7]
  inhibition of tumor xenograft growth compared to tumor size at start of treatment: ~ 50%

## NCCCNCCS [WR1065, 2-[(3-aminopropyl)amino]ethanethiol]
[8]
  p53 mutants reactivated to some degree: 8/11

## CC(=O)O[C@H]1C(=O)[C@@]2(C)[C@H]([C@H](OC(=O)c3ccccc3)[C@]3(O)C[C@H](OC(=O)[C@H](O)[C@@H](NC(=O)c4ccccc4)c4ccccc4)C(C)=C1C3(C)C)[C@]1(OC(C)=O)CO[C@@H]1C[C@@H]2O [Paclitaxel, paclitaxel]
[9]
  CC50: > 100 µM
[9]; [15]
  GI50: 25.8 µM
  TGI: >100 µM
[10]
  CC50: > 100 µM
  GI50: 6.4 µM
[7]
  inhibition of tumor xenograft growth compared to tumor size at start of treatment: ~ 50%
Prostate PC3 cells [11]
  CC50: > 100 µM
Prostate PC3 cells [11]; [15]
  GI50: 36.4 µM
  TGI: >100 µM
Prostate DU145 cells [12]
  GI50: 1.9 µM
  TGI: >100 µM
Lung NCI-H460 cells
  CC50: > 100 µM
  GI50: 5.8 µM
  TGI: 90.4 µM
Lung A549 cells
  CC50: > 100 µM
  GI50: 9.2 µM
  TGI: >100 µM
Ovary SKOV3 cells [13]
  CC50: > 100 µM
  GI50: 0.52 µM
  TGI: 5.2 µM

## N.N.[Cl][Pt][Cl] [Cisplatin, cisplatin, reference compound]
[1]; [16]
  GI50: 27.2 ± 3.4 µM
  IC50: 40.5 ± 8.1 µM
[1]; [17]
  LC99: ND (>100) µM
  TGI: ND (>100) µM
Ovary SKOV3 cells [2]; [18]
  GI50: 5.3 ± 0.4 µM
  IC50: 6.7 ± 0.6 µM
Ovary SKOV3 cells [2]; [19]
  LC99: ND (>21) µM
  TGI: ND (>21) µM
Ovary TOV21G cells; 4SP65-cisplatin combined
  gains in total growth inhibition and cytolytic effects, range: 1.3- to 2.9 fold
Ovary TOV21G cells; amount of each drug in combination, ratio 14% 4SP65:86% DDP, 48 h
  LC99, drug in combination (CMB): 5.9 µM
Ovary TOV21G cells; [18]
  GI50: 2.2 ± 0.4 µM
  IC50: 3 ± 0.3 µM
  LC99: 17.2 µM
  TGI: 6.7 ± 0.3 µM
Ovary TOV21G cells; drug alone, 48 h, 4SP65/cisplatin study, listed as DDP
  LC99: 17.2 ± 5.2 µM
A549 NSCLC cells; 4SP65-cisplatin combined
  gains of cytostatic and cytolytic activities, range: 1.7- to 3.5 fold
A549 NSCLC cells; amount of each drug in combination, ratio 50% 4SP65:50% DDP, 48 h
  LC99, drug in combination (CMB): 7 µM
A549 NSCLC cells; [18]
  GI50: 3.5 ± 0.7 µM
  IC50: 4.7 ± 0.8 µM
  LC99: 24.4 ± 2.6 µM
  TGI: 8.2 ± 1.0 µM
Human cancer cell lines; 4SP65-cisplatin combined, H460, HMESO1, PPMMill, SKOV3
  gains of cytostatic and cytolytic activities, range: 1.7- to 6.9 fold
[10]
  GI50: 22.4 µM
[14]
  GI50: 3 ± 0.4 µM
  IC50: 8.6 ± 1.1 µM
  TGI: 6.7 ± 0.7 µM
[14]; [20]
  LC99: ND (>15) µM
Prostate PC3 cells [11]; [15]
  GI50: 5 µM
Prostate DU145 cells [12]
  GI50: 2 µM
NCI-H460 NSCLC cells
  GI50: 3.1 ± 0.1 µM
  IC50: 4 ± 0.1 µM
NCI-H460 NSCLC cells; [20]
  LC99: ND (>15) µM
  TGI: ND (>15) µM
Lung NCI-H460 cells
  GI50: 0.6 µM
  TGI: >100 µM
Lung A549 cells
  GI50: 3.8 µM
  TGI: >100 µM
Ovary SKOV3 cells [13]
  GI50: 2.5 µM
  TGI: >100 µM
